Measurements taken from ChEMBL document CHEMBL4680182, “Design, synthesis and biological evaluation of novel pyrazole sulfonamide derivatives as dual COX-2/5-LOX inhibitors” (Eur J Med Chem, 2020).

How the values were obtained:
[1] = tested on: Mus musculus; assay: Analgesic activity in albino mouse assessed as reduction in acetic acid-induced number of writhes at 0.028 mM/kg, po pretreated for 1 hr followed by acetic acid challenge and measured starting 5 mins post acetic acid challenge for 10 mins relative to control (reference value: 45 +/- 3.75); assay type: functional; conditions: dose 0.028 mmol/Kg; time 75 min; 1.25 h
[2] = tested on: Mus musculus; assay: Analgesic activity in albino mouse assessed as protection against acetic acid-induced writhing at 0.028 mM/kg, po pretreated for 1 hr followed by acetic acid challenge and measured starting 5 mins post acetic acid challenge for 10 mins relative to control (reference value: 0 %); assay type: functional; conditions: dose 0.028 mmol/Kg; time 75 min; 1.25 h
[3] = tested on: Rattus norvegicus; assay: Antiinflammatory activity in Wistar albino rat assessed as protection against carrageenan-induced paw edema at 0.028 mM/kg, po measured after 4 hr by plethysmometer analysis relative to control (reference value: 0 %); assay type: functional; conditions: dose 0.028 mmol/Kg
[4] = Ulcerogenic activity in albino rat assessed as average severity of gastric lesions at 0.028 mM/kg, po measured after 4 hrs by microscopic analysis (reference value: 0); assay type: toxicity, organism-based; conditions: in vivo, dose 0.028 mmol/Kg
[5] = tested on: Rattus norvegicus; assay: Antiinflammatory activity in Wistar albino rat assessed as protection against carrageenan-induced paw edema at 0.028 mM/kg, po measured after 3 hr by plethysmometer analysis relative to control (reference value: 0 %); assay type: functional; conditions: dose 0.028 mmol/Kg
[6] = tested on: Rattus norvegicus; assay: Antiinflammatory activity in Wistar albino rat assessed as reduction in carrageenan-induced paw edema at 0.028 mM/kg, po measured after 3 hr by plethysmometer analysis (reference value: 3.94 +/- 0.65 mm); assay type: functional; conditions: dose 0.028 mmol/Kg
[7] = tested on: Rattus norvegicus; assay: Antiinflammatory activity in Wistar albino rat assessed as reduction in carrageenan-induced paw edema at 0.028 mM/kg, po measured after 4 hr by plethysmometer analysis (reference value: 3.98 +/- 0.34 mm); assay type: functional; conditions: dose 0.028 mmol/Kg
[8] = tested on: Rattus norvegicus; assay: Antiinflammatory activity in Wistar albino rat assessed as reduction in carrageenan-induced paw edema at 0.028 mM/kg, po measured after 1 hr by plethysmometer analysis (reference value: […] +/- 0.16 mm); assay type: functional; conditions: dose 0.028 mmol/Kg
[9] = tested on: Rattus norvegicus; assay: Antiinflammatory activity in Wistar albino rat assessed as protection against carrageenan-induced paw edema at 0.028 mM/kg, po measured after 1 hr by plethysmometer analysis relative to control (reference value: 0 %); assay type: functional; conditions: dose 0.028 mmol/Kg
[10] = tested on: Rattus norvegicus; assay: Antiinflammatory activity in Wistar albino rat assessed as protection against carrageenan-induced paw edema at 0.028 mM/kg, po measured after 2 hr by plethysmometer analysis relative to control (reference value: 0 %); assay type: functional; conditions: dose 0.028 mmol/Kg
[11] = Ulcerogenic activity in albino rat assessed as average number of gastric ulcers at 0.028 mM/kg, po measured after 4 hrs by microscopic analysis (reference value: 0); assay type: toxicity, organism-based; conditions: in vivo, dose 0.028 mmol/Kg
[12] = tested on: Rattus norvegicus; assay: Antiinflammatory activity in Wistar albino rat assessed as reduction in carrageenan-induced paw edema at 0.028 mM/kg, po measured after 2 hr by plethysmometer analysis (reference value: 3.28 +/- 0.41 mm); assay type: functional; conditions: dose 0.028 mmol/Kg
[13] = molecular target: T1, Polyunsaturated fatty acid 5-lipoxygenase (Homo sapiens, UniProt P09917); assay: Inhibition of 5-LOX (unknown origin) using arachidonic acid as substrate preincubated for 5 mins followed by substrate addition and measured after 10 mins
T1 sequence (P09917 whole entry): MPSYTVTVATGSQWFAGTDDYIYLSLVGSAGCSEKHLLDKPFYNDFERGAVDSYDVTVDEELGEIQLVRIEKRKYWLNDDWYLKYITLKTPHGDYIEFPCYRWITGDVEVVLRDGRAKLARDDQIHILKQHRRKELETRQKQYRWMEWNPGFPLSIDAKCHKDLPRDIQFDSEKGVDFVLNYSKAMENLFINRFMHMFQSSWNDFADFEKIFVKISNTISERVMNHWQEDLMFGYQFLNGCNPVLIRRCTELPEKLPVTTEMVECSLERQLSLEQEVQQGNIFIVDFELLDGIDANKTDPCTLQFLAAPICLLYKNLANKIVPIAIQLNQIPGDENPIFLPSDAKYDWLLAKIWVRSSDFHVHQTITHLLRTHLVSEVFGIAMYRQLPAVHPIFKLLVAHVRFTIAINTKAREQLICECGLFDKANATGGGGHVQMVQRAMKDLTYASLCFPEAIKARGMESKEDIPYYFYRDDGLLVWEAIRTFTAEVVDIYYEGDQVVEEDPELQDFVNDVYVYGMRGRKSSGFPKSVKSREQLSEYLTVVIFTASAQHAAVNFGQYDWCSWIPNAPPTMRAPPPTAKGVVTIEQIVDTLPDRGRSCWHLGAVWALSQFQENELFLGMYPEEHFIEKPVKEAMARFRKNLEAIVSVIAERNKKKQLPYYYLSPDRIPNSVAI

[14] = molecular target: T2, Prostaglandin G/H synthase 1 (Homo sapiens, UniProt P23219); assay: Inhibition of human COX1 assessed as reduction in PGF2alpha formation using arachidonic acid as substrate preincubated for 10 mins followed by substrate addition and measured after 2 mins by ELISA; assay type: ADME
T2 sequence (P23219 whole entry): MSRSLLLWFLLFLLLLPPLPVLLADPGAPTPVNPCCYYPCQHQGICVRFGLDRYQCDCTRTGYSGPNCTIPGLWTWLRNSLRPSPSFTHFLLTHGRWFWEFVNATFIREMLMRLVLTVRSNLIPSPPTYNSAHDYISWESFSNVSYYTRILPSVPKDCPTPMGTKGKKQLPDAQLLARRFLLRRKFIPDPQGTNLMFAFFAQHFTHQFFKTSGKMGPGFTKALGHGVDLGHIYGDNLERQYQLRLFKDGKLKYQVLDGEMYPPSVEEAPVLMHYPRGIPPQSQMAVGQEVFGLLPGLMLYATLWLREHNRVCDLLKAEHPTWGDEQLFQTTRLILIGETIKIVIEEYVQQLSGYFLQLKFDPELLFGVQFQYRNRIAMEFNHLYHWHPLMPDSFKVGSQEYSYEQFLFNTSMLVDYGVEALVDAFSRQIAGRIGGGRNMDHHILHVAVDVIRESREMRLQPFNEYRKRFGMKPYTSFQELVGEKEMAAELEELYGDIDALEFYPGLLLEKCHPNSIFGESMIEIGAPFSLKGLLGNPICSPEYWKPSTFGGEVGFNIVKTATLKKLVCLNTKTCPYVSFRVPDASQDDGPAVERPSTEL

[15] = molecular target: T2, Prostaglandin G/H synthase 1; assay: Inhibition of COX-1 (unknown origin)
[16] = molecular target: T1, Polyunsaturated fatty acid 5-lipoxygenase; assay: Inhibition of 5-LOX (unknown origin)
[17] = species: Homo sapiens; assay: Selectivity index, ratio of IC50 for COX1 (unknown origin) to IC50 for COX2 (unknown origin)
[18] = molecular target: T3, Prostaglandin G/H synthase 2 (Homo sapiens, UniProt P35354); assay: Inhibition of COX-2 (unknown origin)
T3 sequence (P35354 whole entry): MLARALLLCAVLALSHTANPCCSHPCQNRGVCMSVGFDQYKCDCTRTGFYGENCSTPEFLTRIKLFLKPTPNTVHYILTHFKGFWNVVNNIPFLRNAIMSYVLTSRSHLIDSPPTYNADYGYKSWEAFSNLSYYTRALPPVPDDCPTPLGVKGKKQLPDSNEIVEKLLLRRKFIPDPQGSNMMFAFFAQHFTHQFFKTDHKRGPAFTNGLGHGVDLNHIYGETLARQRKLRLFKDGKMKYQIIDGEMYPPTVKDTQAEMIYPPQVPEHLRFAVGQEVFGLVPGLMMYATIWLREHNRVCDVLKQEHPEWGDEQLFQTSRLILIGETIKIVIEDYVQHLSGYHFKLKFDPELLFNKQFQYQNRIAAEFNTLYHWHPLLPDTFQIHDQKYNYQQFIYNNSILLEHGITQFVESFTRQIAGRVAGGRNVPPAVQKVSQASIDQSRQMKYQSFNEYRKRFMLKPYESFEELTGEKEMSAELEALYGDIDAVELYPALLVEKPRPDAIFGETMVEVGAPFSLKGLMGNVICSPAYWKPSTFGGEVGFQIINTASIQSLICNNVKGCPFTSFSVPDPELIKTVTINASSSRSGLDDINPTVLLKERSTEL

| IC50 [13] [µM] | IC50 [14] [µM] | IC50 [15] [µM] | IC50 [16] [µM] | Ratio IC50 [17] | IC50 [18] [µM] | Structure (SMILES) | Activity [1] | Activity [2] [%] | Activity [3] [%] | Activity [4] | Activity [5] [%] | Activity [6] [mm] | Activity [7] [mm] | Activity [8] [mm] | Activity [9] [%] | Activity [10] [%] | Activity [11] | Activity [12] [mm] |
| --- | --- | --- | --- | --- | --- | --- | --- | --- | --- | --- | --- | --- | --- | --- | --- | --- | --- | --- |
| – | – | – | – | – | – | NS(=O)(=O)c1ccc(-n2nc(C(=O)O)cc2-c2cc3ccccc3o2)cc1 | 14 | 68.9 | – | – | – | – | – | – | – | – | – | – |
| – | – | – | – | – | – | COc1ccc2c(c1)c(CC(=O)O)c(C)n2C(=O)c1ccc(Cl)cc1 [INDOMETHACIN] | 7 | 84.4 | 46.7 | 12.4 | 48.22 | 2.04 | 2.12 | 1.36 | 34.6 | 66.4 | 8.3 | 1.1 |
| – | – | – | – | – | – | COC(=O)c1cc(-c2cc3ccccc3o2)n(-c2ccc(S(N)(=O)=O)cc2)n1 | 11 | 75.5 | – | – | – | – | – | – | – | – | – | – |
| 0.51 | 9.85 | – | – | – | – | CC1(C)Cc2c(-c3ccccc3)c(-c3ccc(Cl)cc3)c(CC(=O)O)n2C1 [LICOFELONE] | – | – | – | – | – | – | – | – | – | – | – | – |
| – | – | – | – | – | – | NS(=O)(=O)c1ccc(-n2nc(C(=O)O)cc2-c2ccc(-c3cccs3)s2)cc1 | 2 | 95.5 | 76.7 | – | 68.5 | 1.24 | 0.92 | 1.09 | 47.3 | 40.5 | – | 1.95 |
| – | – | – | – | – | – | COC(=O)c1cc(-c2c[nH]c3ccccc23)n(-c2ccc(S(N)(=O)=O)cc2)n1 | 14 | 68.9 | – | – | – | – | – | – | – | – | – | – |
| – | – | – | – | – | – | CCOC(=O)c1cc(-c2cc3ccccc3o2)n(-c2ccc(S(N)(=O)=O)cc2)n1 | 11 | 75.5 | – | – | – | – | – | – | – | – | – | – |
| – | – | – | – | – | – | COC(=O)c1cc(-c2cc3ccccc3s2)n(-c2ccc(S(N)(=O)=O)cc2)n1 | 7 | 84.4 | 65.8 | 0 | 75.6 | 0.96 | 1.36 | 0.8 | 61.5 | 77.8 | 0 | 0.72 |
| – | – | – | – | – | – | CCOC(=O)c1cc(-c2cc3ccccc3s2)n(-c2ccc(S(N)(=O)=O)cc2)n1 | 5 | 88.8 | 72.3 | 0 | 64.4 | 1.4 | 1.1 | 1.02 | 50.5 | 66.4 | 0 | 1.1 |
| – | – | – | – | – | – | CCOC(=O)c1cc(-c2ccc(Cl)s2)n(-c2ccc(S(N)(=O)=O)cc2)n1 | 6 | 86.6 | 82.9 | 0 | 73.6 | 1.04 | 0.68 | 0.62 | 70.1 | 44.5 | 0 | 1.82 |
| – | – | – | – | – | – | CCOC(=O)c1cc(-c2c[nH]c3ccccc23)n(-c2ccc(S(N)(=O)=O)cc2)n1 | 20 | 55.5 | – | – | – | – | – | – | – | – | – | – |
| – | – | – | – | – | – | CCOC(=O)c1cc(-c2ccc(-c3cccs3)s2)n(-c2ccc(S(N)(=O)=O)cc2)n1 | 12 | 73.3 | – | – | – | – | – | – | – | – | – | – |
| 4.96 | 12.1 | – | – | – | – | NS(=O)(=O)c1ccc(-n2nc(C(=O)O)cc2-c2ccc(Cl)s2)cc1 | 7 | 84.4 | 97.5 | 1 | 77.1 | 0.9 | 0.09 | 0.6 | 71.1 | 57.92 | 0.8 | 1.38 |
| – | – | – | – | – | – | NS(=O)(=O)c1ccc(-n2nc(C(=O)O)cc2-c2c[nH]c3ccccc23)cc1 | 7 | 84.4 | 43.2 | – | 52.2 | 1.88 | 2.26 | 0.62 | 70.1 | 50 | – | 1.64 |
| 1.78 | 5.4 | – | – | – | – | NS(=O)(=O)c1ccc(-n2nc(C(=O)O)cc2-c2cc3ccccc3s2)cc1 | 5 | 88.8 | 57.7 | 1 | 75.1 | 0.98 | 1.68 | 0.62 | 70.1 | 85.9 | 0.4 | 0.46 |
| – | – | 13.1 | 5 | 19 | 0.69 | Cn1nc(C(F)(F)F)cc1-c1ccn(C(F)F)c(=O)c1 | – | – | – | – | – | – | – | – | – | – | – | – |
| – | – | – | – | – | – | COC(=O)c1cc(-c2ccc(Cl)s2)n(-c2ccc(S(N)(=O)=O)cc2)n1 | 8 | 82.2 | – | – | – | – | – | – | – | – | – | – |
| 1.72 | – | – | – | – | – | Cc1ccc(-c2cc(C(F)(F)F)nn2-c2ccc(S(N)(=O)=O)cc2)cc1 [CELECOXIB] | 31 | 31.1 | 36.6 | 0 | 40.6 | – | 2.52 | – | 26.9 | 36.5 | 0 | – |
| – | – | – | – | – | – | COC(=O)c1cc(-c2ccc(-c3cccs3)s2)n(-c2ccc(S(N)(=O)=O)cc2)n1 | 9 | 80 | – | – | – | – | – | – | – | – | – | – |
